From patent US20220267394A1, “COMPOUNDS FOR INDUCING TISSUE FORMATION AND USES THEREOF” (HISTIDE AG, priority 2015, published 2022) come the findings set out here.

For assay [1], the system named is Human Hematopoeitic Stem Cells. Put plainly: Differentiation of human hematopoietic stem cells: CD34+ expression by immunostaining. Type of assay: cell-based. As to conditions: peptides in solution in the cell culture media, 400 ng/mL, 48 hours. The source says: The following starting materials and reagents were used: • Apatite ceramics (also called apatite or ceramic in the present invention) were synthetized as described in Mater Res. 2004; 7(4): 625-630. • Titanium was obtained from Goodfellow®. • Hydrogel (poly(acrylamide-co-acrylic acid) gel) was synthetized as described in Langmuir 2011; 27(22):13635-42. • PEEK was obtained from Goodfellow®. • PET (Poly(ethylene terephthalate) was obtained from Goodfellow®. • Type-I collagen sponge was obtained from Sigma®. • Hexane was obtained from Sigma®. • 3-succinimidyl-3-maleimidopropionate (SMP) was obtained from Sigma®. • DMF was obtained from Sigma®. • PBS 1× was obtained from Gibco®. • 3-(ethoxydimethylsilyl)propylamine was obtained from Sigma®. • Ammonium persulfate was obtained from Biorad®. • N,N,N′,N′-tetramethylethylenediamine was obtained from Aldrich®. • Acrylamid was obtained from Merck®. • Acrylic acid was obtained from Merck®. • N,N-methylene-bis-acrylamide was obtained from Merck®. • NaOH was obtained from Aldrich®. • N,N,N′,N′-tetramethylethylenediamine was obtained from Aldrich®. • Dimethylaminopropyl-3-ethylcarbodiimide hydrochloride was obtained from Aldrich®. • N-hydroxysuccinimide was obtained from Aldrich®. • 2-(N-morpholino)-ethane sulfonic acid was obtained from Aldrich®. • MilliQ water: is water characterised in terms of resistivity (typically 18.2 MΩ·cm at 25° C.). • Low glucose Dulbecco's Modified Eagle Medium (DMEM) was obtained from Invitrogen® • Minimum Essential Medium Eagle without ascorbic acid (αMEM) was obtained from Invitrogen®. • All of the cell culture experiments were carried out without any serum in the medium for the first 8 hours of culture. • Osteoblast progenitors or precursor osteoblasts: MC3T3-E1 cells were obtained from ATCC®. These cells were cultured in Alpha-MEM medium supplemented with 10% fetal calf serum (FCS) and 1% penicillin/streptomycin. All cells were used at a low passage number (passage 7), were subconfluently cultured and were seeded at 10^4 cells/cm^2 for the purpose of the experiments. • Human bone marrow Mesenchymal Stem Cells (hMSCs) were obtained from Lonza®. These cells were cultured in Alpha-MEM supplemented with 10% (v/v) FBS and 1% penicillin/streptomycin and incubated in a humidified atmosphere containing 5% (v/v) CO2 at 37° C. All cells were used at a low passage number (passage 2 to 4), were subconfluently cultured and were seeded at 10^4 cells/cm^2 for the purpose of the experiments. • Human adipose Mesenchymal Stem Cells (haMSCs) were obtained from Lonza®. These cells were cultured in Alpha-MEM supplemented with 10% (v/v) FBS and 1% penicillin/streptomycin and incubated in a humidified atmosphere containing 5% (v/v) CO2 at 37° C. All cells were used at a low passage number (passage 3 to 4), were subconfluently cultured and were seeded at 10^4 cells/cm^2 for the purpose of the experiments. • Mouse Hair Follicle Stem Cells were isolated and cultured as described in Methods Mol Biol. 2010; 585:401-20. • Neuron cells are Neuronal Schwann Cells obtained from ATCC®. These cells were cultured in Dulbecco's Modified Eagle's Medium supplemented with 10% (v/v) FBS and 1% penicillin/streptomycin and incubated in a humidified atmosphere containing 5% (v/v) CO2 at 37° C. All cells were used at a low passage number (passage 6-8), were subconfluently cultured and were seeded at 10^4 cells/cm^2 for the purpose of the experiments. • Human umbilical-vein endothelial cells (HUVECs) were purchased from Promocell®. HUVECs were isolated and grown on gelatin coated culture flasks in a complete HUVEC culture medium (IMDM (Invitrogen, France) supplemented with 20% (v/v) fetal bovine serum (FBS) (PAA, France) and 0.4% (v/v) EC growth supplement/heparin kit (Promocell, France)). Cells were subcultured by using trypsin/EDTA (Invitrogen, France) and maintained in a humidified atmosphere containing 5% CO2 at 37° C. These cells were used at a passage number 3 to 5 for the purpose of the experiments. […]

The test system of assay [2] is hMSCs. Description: Loss of stemness: STRO-1 expression by immunostaining. The format is cell-based, human. The essentials: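 hMSCs cultured on plastic with GFR-binding peptides in solution (some sequences tested with a bioactive carrier), then fixed, permeabilized and immunostained for Stro-1. Stro-1-positive contact number and area quantified by thresholded image analysis, minimum 30 cells per condition.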

In assay [3] the test system is hMSCs. Description: CD-105 expression by immunostaining. Type of assay: cell-based, human. Conditions: Table 7, previously reported peptides in solution (not combined with a bioactive carrier). As to the method:
For this type of quantification the freeware image analysis ImageJ® software was used. The raw image was first converted to an 8-bit file, and then the unsharp mask feature was used (settings 1:0.2) to remove the image background (rolling ball radius 10). After smoothing, the resulting image, which appears similar to the original photomicrograph but with minimal background, was then converted to a binary image by setting a threshold. Threshold values were determined empirically by selecting a setting, which gave the most accurate binary image for a subset of randomly selected photomicrographs. The cell area was determined by manual delineation on raw fluorescent images. Total contact area and mean contact area per cell were calculated by “analyse particules” in ImageJ®. A minimum of 30 cells per condition were analyzed. Stro-1, CD-34+, and CD-105 expressions were determined using this procedure.
Likewise, using the method detailed in the description, the RMSD of another 27 previously reported peptide sequences have been determined (Table 7) and correlated with the expressions of STRO-1 and CD-105 in solution. […] Data were obtained with peptides in solution (i.e. not combined with a bioactive carrier).

The mark [4] stands for this setting: Table 7, previously reported peptides in solution (not combined with a bioactive carrier).
Where [5] appears, read: Table 8, SEQ ID NO: 1 to 49 tested in combination with a bioactive carrier (titanium, ceramics, collagen, etc.).
Where [6] appears, read: Table 6, previously reported peptides in solution, 400 ng/mL.
Where [7] appears, read: Table 8, SEQ ID NO: 2242 to 2267 tested in solution.

Where no end group is shown, it is not given here.

“2156 (APVKMEPLPTVYYDDMGVPTEQLSNDMVEESGSL; GFR-binding peptide) [compound 2156]”: in assay [1], the “CD34+ Expression (%)” value is 25%.
On to “2149 (VSQAARPVQTRKIDDMGVPTKKATVAAVKS; GFR-binding peptide) [compound 2149]”, for which the “CD34+ Expression (%)” value in assay [1] is 28%.
For “2215 (VPQTLDPLPIIYYVGRNVRVEQLSNMVVRA; Comparative sequence) [compound 2215]”, the “STRO-1 expression (%)” value with hMSCs [2] (setting [4]) is 71%. Besides, the “CD-105 expression (%)” value in the assay on hMSCs [3] is 68%.
Turning to “2155 (EPSSSRVRLEPLTTLYYGGGGGGGEQLSNVVEEHSKSS; GFR-binding peptide) [compound 2155]”, the “CD34+ Expression (%)” value in assay [1] is on record as 29%.
Turning to “2238 (CCAPTELSAISVLYFDDSSNVILKKYEDMVVEACGCR; Comparative sequence) [compound 2238]”, the “STRO-1 expression (%)” value with hMSCs [2] (setting [4]) is listed as 76%. The “CD-105 expression (%)” value in the assay on hMSCs [3] was determined as 72%.
Take “2148 (KASSVPQEERPVQMRKIGGGGGGGKKATVMIVRSSKSS; GFR-binding peptide) [compound 2148]”: the “CD34+ Expression (%)” value in assay [1] is reported as 32%.
Same read-out and setting: for “2147 (IPKASSAPVGQRPVQMRKIDKGVVTYKKATVSSVEESGSL; GFR-binding peptide) [compound 2147]” the value was 27%; for “2157 (EPSSVSQAAEPLPIVYYRIKPHQGQHEQLSNMIVKSSKSS; GFR-binding peptide) [compound 2157]”, 23%.
The same measure, in the same setting: as for “2150 (PTSSAPTDLRSVKMAKVEIVRKKPIFKEVQVDMVVKASGSH; GFR-binding peptide) [compound 2150]”, the figure is 26%; as for “2153 (KASSSRVKMSNITVQIMRIKPHQGQHIGEMSVVEEHASGSH; GFR-binding peptide) [compound 2153]”, 22%; as for “2154 (VPTAAEPLTMLYYEIVRKKPIFEQLSNMVEHS; GFR-binding peptide) [compound 2154]”, 21%.
Regarding “2152 (IPKASSVPQSSSNITMQIMGGGGGGGIGEMSSSVKSSGSL; GFR-binding peptide) [compound 2152]”, the “CD34+ Expression (%)” value in assay [1] was 30%.
Take “9 (CRNVQCRPTQVQLSAISTLYLEIVRKKPLKNYQTLEDH; GFR-binding peptide) [compound 9]”: in the assay on hMSCs [2] (setting [5]), the “STRO-1 expression (%)” value came to 19%.
“2173 (TKPLSSLLFPNWNTTTTPTPPRP; Peptide reported in WO2013040142, SEQ ID NO:866827) [compound 2173]”: in the assay on hMSCs [2] (setting [6]), the “STRO-1 expression (%)” value turned out to be 91%.
With “45 (CAAPASSSVPARLSPISLLYIDAANNVVYKQYEDM; not fully specified; ends and bridges not checked) [compound 45]”, the “STRO-1 expression (%)” value in the assay with hMSCs [2] (setting [5]) is recorded as 24%.
On the same count and under the same terms, for “18 (CKVGKASSVPTKLNAISTLYLDENEKVVLKKYREGMS; not fully specified; ends and bridges not checked) [compound 18]” the value was 19%.
Take “2214 (KPCCAPTELSAISVLYFDDSSNVILKKYRNMVVRACGCR; Peptide reported in US20050250936, SEQ ID NO:122) [compound 2214]”: the “STRO-1 expression (%)” value with hMSCs [2] (setting [6]) is on record as 83%.
For the substance “2188 (SSVPAVCSATSATGPYSSGSVEVTFDVYATTVY; Peptide reported in EP1687419, SEQ ID NO:45) [compound 2188]”, the “STRO-1 expression (%)” value in the assay on hMSCs [2] (setting [6]) turned out to be 92%.
Consider “38 (CVPTEERSVKVAKVRIKPHQGQHKEVQV; GFR-binding peptide) [compound 38]”, for which the “STRO-1 expression (%)” value with hMSCs [2] (setting [5]) was determined as 23%.
In the case of “2259 (TQVAARPVQTRKIDDMGVPTKKATVAAEDH; GFR-binding peptide) [compound 2259]”, the “STRO-1 expression (%)” value in the assay on hMSCs [2] (setting [7]) worked out at 23%.
Consider “23 (GTPGPKVPKPSSAPTQLSAISTLYLDEYDKVVLKNYQNMAVR; not fully specified; ends and bridges not checked) [compound 23]”, for which the “STRO-1 expression (%)” value with hMSCs [2] (setting [5]) is listed as 17%.
Regarding “2250 (VPTVVSPISMLYIDDMGVPTYKQYEVVVVE; GFR-binding peptide) [compound 2250]”, the “STRO-1 expression (%)” value in the assay on hMSCs [2] (setting [7]) is on record as 26%.
On to “49 (CTVPKPXXAPTQLSPISILYIDAANNVVYKQYEDMVVRA; GFR-binding peptide; MOD_RES (7), (8): Xaa is C or S) [compound 49]”, for which, in the assay with hMSCs [2] (setting [5]), the “STRO-1 expression (%)” value is 18%.
With “2252 (VPQAAEPLPMLYYDKGVVTYEQLSNAAVRS; GFR-binding peptide) [compound 2252]”, the “STRO-1 expression (%)” value in the assay with hMSCs [2] (setting [7]) was found to be 19%.
On to “2163 (TPTYSRPVQKAELTR; Peptide reported in US20130332133, SEQ ID NO:16645) [compound 2163]”, for which the “STRO-1 expression (%)” value in the assay with hMSCs [2] (setting [6]) is 97%.
The same measure, in the same setting: as for “2161 (DPLPIIYYVGRNVRVEQLSNMVVRACKCS; Comparative sequence) [compound 2161]”, the figure is 97%.
On to “2151 (PTSSVPTGGRSVKMAKVDKGVVTYKEVQVMVVAESKSS; GFR-binding peptide) [compound 2151]”, for which, in assay [1], the “CD34+ Expression (%)” value is listed as 24%.
With “2183 (TPTVVSATSL; Peptide reported in US20150153356, SEQ ID NO:51419) [compound 2183]”, the “STRO-1 expression (%)” value in the assay on hMSCs [2] (setting [6]) was 98%.
On the same count and under the same terms, as for “2199 (APTQLSAISVL; Peptide reported in US20050250936, SEQ ID NO:71) [compound 2199]”, the figure is 93%.
Turning to “17 (CASAAPSSVPQKLNAISMLYFVGRKPKVLKKYRMIVRS; not fully specified; ends and bridges not checked) [compound 17]”, in the assay with hMSCs [2] (setting [5]), the “STRO-1 expression (%)” value is reported as 21%.
On to “2251 (APVAAKPLSMLYVDKGVVTYDHHKDAAVEE; GFR-binding peptide) [compound 2251]”, for which the “STRO-1 expression (%)” value in the assay with hMSCs [2] (setting [7]) is recorded as 22%.
Consider “2178 (SPISILVVPELDASLPEKRPSLDGFEALLVYNAPKA; Peptide reported in US20120246748, SEQ ID NO:119912) [compound 2178]”, for which the “STRO-1 expression (%)” value in the assay on hMSCs [2] (setting [6]) worked out at 82%.
As to “11 (CPKPSSAPTQLNAISMLYFGGGGGGGLKKYRNMVVRA; GFR-binding peptide) [compound 11]”, in the assay with hMSCs [2] (setting [5]), the “STRO-1 expression (%)” value stood at 31%.
Regarding “2197 (LSLLAPPEPVWNHETSYGSDCHVPTNVNAISKMIDKSNHQTG; Peptide reported in US20140130203, SEQ ID NO:119179) [compound 2197]”, in the assay with hMSCs [2] (setting [6]), the “STRO-1 expression (%)” value was 93%.
On to “46 (CPARLSPISLLYIDAANNVVYKQYEDM; GFR-binding peptide) [compound 46]”, for which the “STRO-1 expression (%)” value in the assay on hMSCs [2] (setting [5]) amounted to 19%.
